Assay results as given in patent US12582641B2, “Sulfur-containing compound based on glutarimide skeleton and application thereof” (SHANGHAITECH UNIVERSITY, priority 2019, dated 2026).

tested on: MM.1S cells; assay: Proliferation inhibition (IC50) in MM.1S cells, cell viability assay; details: Homo sapiens, MM1.S, 72 h, read-out: IC50 (nM), proliferation inhibitory activity of MM.1S cells (half inhibitory concentration)
Experimental: MM.1S (B lymphoblast) was purchased from ATCC. Complete medium was RPMI1640 supplemented with 10% FBS and 1% Penicillin-Streptomycin. The cells used were identified as correct cells by STR cells, and were negative for mycoplasma through routine inspections.
IC50 values of the compounds of the present disclosure were measured using Cell Titer Blue, Cell Titer GLO, or WST reagent from Promega Company. Assay details are as follows: Cells were seeded in 100 μL RPMI1640 complete medium containing serum at a density of 15,000 cells/well. After 24 h, the inoculated cells were treated with diluted commercial inhibitor and the compounds of the present disclosure to be tested after serial dilution. After the cells were treated with the compounds of the present disclosure to be tested for 72 h, cell viability was determined after adding the cell viability detection kit listed above according to the reagent operating instructions. The negative control was DMSO, and the positive control was a commercial inhibitor, both of which were used to treat the cells through the same method as that of the compounds of the present disclosure. The growth inhibition of the compounds of the present disclosure on cells was plotted by Prism Graphpad software, and the IC50 values of the compounds of the present disclosure were calculated therefrom.
We tested the activities of the compounds of the present invention in MM.1S cell (which overexpressed IKZF1/3 and is highly sensitive to immunomodulatory drugs) through a dose-dependent manner. The cells were treated with the compounds of the present invention at 10 different successively decreasing concentrations (starting at the highest concentration of 10 μM; 5-fold serial dilutions) for 72 h, and then the cell viability determination was performed in accordance with CCK-8 reagent operating instructions. The experiment was repeated more than three times.

Compared with CCN(CC)CCCCCCSc1cccc2c1CN(C1CCC(=O)NC1=O)C2=O (stereo not drawn) [SIAIS1220029, 3-(4-((6-(diethylamino)hexyl)thio)-1-oxoisoindolin-2-yl)piperidine-2,6-dione], CCN(CC)CCCCCCCCCCCSc1cccc2c1CN(C1CCC(=O)NC1=O)C2=O (stereo not drawn) [SIAIS1220047, 3-(4-((11-(diethylamino)undecyl)thio)-1-oxoisoindolin-2-yl)piperidine-2,6-dione] is 10-fold lower in IC50: 1.13 nM for the first, 0.11 ± 0.01 nM for the second. The second is the more potent here.

Going from O=C1CCC(N2Cc3c(SCc4ccc(CNC5CCCCC5)cc4)cccc3C2=O)C(=O)N1 (stereo not drawn) [SIAIS1221071, 3-(4-((4-((cyclohexylamino)methyl)benzyl)thio)-1-oxoisoindolin-2-yl)piperidine-2,6-dione] to O=C1CCC(N2Cc3c(SCCCCCCCNC4CCCC4)cccc3C2=O)C(=O)N1 (stereo not drawn) [SIAIS1222117, 3-(4-((7-(cyclopentylamino)heptyl)thio)-1-oxoisoindolin-2-yl)piperidine-2,6-dione], the IC50 rises from 0.072 ± 0.004 nM to 0.123 nM (1.7-fold).

O=C1CCC(N2Cc3c(SCCCCCCCN4CCC5(CC4)CC5)cccc3C2=O)C(=O)N1 (stereo not drawn) [SIAIS1222195, 3-(4-((7-(6-azaspiro[2.5]octan-6-yl)heptyl)thio)-1-oxoisoindolin-2-yl)piperidine-2,6-dione] and CC1(C)CCN(CCCCCCCSc2cccc3c2CN(C2CCC(=O)NC2=O)C3=O)CC1 (stereo not drawn) [SIAIS1221027, 3-(4-((7-(4,4-dimethylpiperidin-1-yl)heptyl)thio)-1-oxoisoindolin-2-yl)piperidine-2,6-dione] are within 1.5-fold of each other in IC50: 0.046 nM for the first, 0.038 ± 0.006 nM for the second.

First: O=C1CCC(N2Cc3c(SCCCCCCCN[C@H]4C[C@H]5CC[C@@H]4C5)cccc3C2=O)C(=O)N1 (stereo partly drawn) [SIAIS1228059, 3-(4-((7-(((1R,2S,4S)-bicyclo[2.2.1]heptan-2-yl)amino)heptyl)thio)-1-oxoisoindolin-2-yl)piperidine-2,6-dione]
Second: O=C1CCC(N2Cc3c(SCCCCCCCN[C@H]4CN5CCC4CC5)cccc3C2=O)C(=O)N1 (stereo partly drawn) [SIAIS1224037, 3-(1-oxo-4-((7-(((R)-quinuclidin-3-yl)amino)heptyl)thio)isoindolin-2-yl)piperidine-2,6-dione]
The IC50 of the first is 380-fold lower: 0.037 nM for the first, 14 nM for the second. The first is the more potent here.

O=C1CCC(N2Cc3c(SCCCCCCCCCN4CCOCC4)cccc3C2=O)C(=O)N1 (stereo not drawn) [SIAIS1220065, 3-(4-((9-morpholinononyl)thio)-1-oxoisoindolin-2-yl)piperidine-2,6-dione] and O=C1CCC(N2Cc3c(SCCCCCCCCCCCN4CCOCC4)cccc3C2=O)C(=O)N1 (stereo not drawn) [SIAIS1220045, 3-(4-((11-morpholinoundecyl)thio)-1-oxoisoindolin-2-yl)piperidine-2,6-dione] are within error of each other in IC50: 0.49 nM for the first, 0.36 ± 0.13 nM for the second.

O=C1CCC(N2Cc3c(SCCCCCCNC(=O)C45CC6CC(CC(Cl)(C6)C4)C5)cccc3C2=O)C(=O)N1 (stereo not drawn) [SIAIS1222145, 3-chloro-N-(6-((2-(2,6-dioxopiperidin-3-yl)-1-oxoisoindolin-4-yl)thio)hexyl)adamantane-1-carboxamide] and O=C1CCC(N2Cc3c(SCCCCCCC(=O)NC45CC6CC(CC(C6)C4)C5)cccc3C2=O)C(=O)N1 (stereo not drawn) [SIAIS1220195, N-(adamantan-1-yl)-7-((2-(2,6-dioxopiperidin-3-yl)-1-oxoisoindolin-4-yl)thio)heptanamide] are within 1.5-fold of each other in IC50: 0.043 nM for the first, 0.048 nM for the second.

Going from O=C1CCC(N2Cc3c(SCCCCCCCCN4CCC(F)(F)CC4)cccc3C2=O)C(=O)N1 (stereo not drawn) [SIAIS1220055, 3-(4-((8-(4,4-difluoropiperidin-1-yl)octyl)thio)-1-oxoisoindolin-2-yl)piperidine-2,6-dione] to O=C1CCC(N2Cc3c(SCCCC(F)(F)C(F)(F)F)cccc3C2=O)C(=O)N1 (stereo not drawn) [SIAIS1220133, 3-(1-oxo-4-((4,4,5,5,5-pentafluoropentyl)thio)isoindolin-2-yl)piperidine-2,6-dione], the IC50 rises from 0.26 nM to 4.73 nM (18-fold).

With CC1CC(C)CN(Cc2csc(CSc3cccc4c3CN(C3CCC(=O)NC3=O)C4=O)n2)C1 (stereo not drawn) [SIAIS313186, 3-(4-(((4-((3,5-dimethylpiperidin-1-yl)methyl)thiazol-2-yl)methyl)thio)-1-oxoisoindolin-2-yl)piperidine-2,6-dione] the IC50 was 1.63 ± 0.61 nM.
